According to patent US8367873B2, “Phenyl-substituted bicyclooctane-1,3-dione derivatives” (Bayer Cropscience AG, priority 2008, dated 2013):

Columns and labels:
Format in all cases: in vivo
[1] = tested on: monocotylidonous and dicotylidonous weed and crop plants; experiment: Herbicidal post-emergence action (other test plants); conditions: post-emergence method, 80 g/ha
In short: (§1)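 Percent herbicidal effect (0% like control, 100% plants dead) was rated by eye roughly three weeks post-treatment. Treatment was a post-emergence spray of wettable-powder formulations at different doses, 600 l/ha water with 0.2% wetter, onto one-leaf-stage weeds and crops grown in greenhouse pots.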

Echinocloa crus-galli [2] = experiment: Herbicidal pre-emergence action; conditions: pre-emergence method, 80 g/ha, greenhouse, visual assessment vs untreated controls
In short: (§2)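 Test compounds, as wettable powder suspensions with 0.2% wetting agent at a water rate of 600 l/ha, were applied in different amounts to the covering soil over freshly sown seeds in sandy loam. Emergence damage was rated visually in percent against untreated plants after three weeks under greenhouse conditions.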

Lolium multiflorum [3] = experiment: Herbicidal pre-emergence action; conditions: pre-emergence method, 80 g/ha, greenhouse, visual assessment vs untreated controls
In short: as §2

Alopecurus myosuroides [4] = experiment: Herbicidal pre-emergence action; conditions: pre-emergence method, 80 g/ha, greenhouse, visual assessment vs untreated controls
In short: as §2

Setaria viridis [5] = experiment: Herbicidal pre-emergence action; conditions: pre-emergence method, 80 g/ha, greenhouse, visual assessment vs untreated controls
In short: as §2

Echinocloa crus-galli [6] = experiment: Herbicidal post-emergence action; conditions: post-emergence method, 80 g/ha
In short: as §1

Lolium multiflorum [7] = experiment: Herbicidal post-emergence action; conditions: post-emergence method, 80 g/ha
In short: as §1

Alopecurus myosuroides [8] = experiment: Herbicidal post-emergence action; conditions: post-emergence method, 80 g/ha
In short: as §1

Setaria viridis [9] = experiment: Herbicidal post-emergence action; conditions: post-emergence method, 80 g/ha
In short: as §1

[10] = tested on: monocotylidonous and dicotylidonous weed and crop plants; experiment: Herbicidal pre-emergence action (other test plants); conditions: pre-emergence method, 80 g/ha, greenhouse, visual assessment vs untreated controls
In short: as §2

Compound | herbicidal effect against AVEFA (Avena fatua) [1] | herbicidal effect ECHCG (Echinocloa crus-galli [2]) | herbicidal effect LOLMU (Lolium multiflorum [3]) | herbicidal effect ALOMY (Alopecurus myosuroides [4]) | herbicidal effect SETVI (Setaria viridis [5]) | herbicidal effect against ECHCG (Echinochloa crus-galli) (Echinocloa crus-galli [6]) | herbicidal effect against LOLMU (Lolium multiflorum) (Lolium multiflorum [7]) | herbicidal effect against ALOMY (Alopecurus myosuroides) (Alopecurus myosuroides [8]) | herbicidal effect against SETVI (Setaria viridis) (Setaria viridis [9]) | herbicidal effect AVEFA [10]
COc1cc(C)cc(C)c1C1=C([O-])C2CC3(CC2C1=O)OCCCO3.[Na+] (centres unmarked) [I-f-4] | 90% | 90% | 100% | 0% | 50% | 100% | 100% | 100% | 100% | 50%
COc1cc(C)cc(C)c1C1=C([O-])C2CC3(CC2C1=O)OCCCCO3.[Na+] (centres unmarked) [I-f-5] | 100% | 70% | 90% | 90% | 90% | 100% | 100% | 100% | 100% | 70%
COc1cc(C)cc(C)c1C1=C([O-])C2CC3(CC2C1=O)OCCO3.[Na+] (centres unmarked) [I-f-6] | 80% | 70% | 90% | 60% | 70% | 100% | 100% | 100% | 100% | 90%
COc1cc(C)cc(C)c1C1=C([O-])C2CC3(CC2C1=O)OCC=CCO3.[Na+] (centres unmarked) [I-f-7] | 100% | 80% | 100% | 100% | 90% | 100% | 100% | 100% | 100% | 70%
Cc1cc(C)c(C2=C([O-])C3CC4(CC3C2=O)OCC=CCO4)c(C)c1.[Na+] (centres unmarked) [I-f-8] | 90% | 0% | 100% | 30% | 70% | 100% | 100% | 100% | 100% | 40%
Cc1cc(C)c(C2=C([O-])C3CC4(CC3C2=O)OCC(C)CO4)c(C)c1.[Na+] (centres unmarked) [I-f-9] | 90% | 60% | 100% | 30% | 50% | 80% | 100% | 80% | 100% | 50%
Cc1cc(C)c(C2=C([O-])C3CC4(CC3C2=O)OCCO4)c(C)c1.[Na+] (centres unmarked) [I-f-11] | 40% | 0% | 100% | 40% | 20% | 90% | 100% | 60% | 80% | 50%
CCc1cc(C)cc(CC)c1C1=C([O-])C2CC3(CC2C1=O)OCC=CCO3.[Na+] (centres unmarked) [I-f-12] | 100% | 100% | 70% | 100% | 90% | 100% | 100% | 100% | 100% | 70%
CCc1cc(C)cc(CC)c1C1=C([O-])C2CC3(CC2C1=O)OCC(OC)CO3.[Na+] (centres unmarked) [I-f-13] | 100% | 100% | 100% | 100% | 90% | 100% | 100% | 100% | 100% | 0%
CCOC1COC2(CC3C(=O)C(c4c(CC)cc(C)cc4CC)=C([O-])C3C2)OC1.[Na+] (centres unmarked) [I-f-14] | 100% | 100% | 100% | 100% | 100% | 100% | 100% | 100% | 100% | 70%
CCc1cc(C)cc(CC)c1C1=C([O-])C2CC3(CC2C1=O)OCCO3.[Na+] (centres unmarked) [I-f-15] | 90% | 100% | 100% | 100% | 90% | 100% | 100% | 80% | 100% | 60%
CCc1cc(C)cc(CC)c1C1=C([O-])C2CC3(CC2C1=O)OCC(OCc1ccccc1)CO3.[Na+] (centres unmarked) [I-f-16] | 100% | 60% | 90% | 80% | 90% | 100% | 100% | 100% | 100% | 80%
CCc1cc(C)cc(CC)c1C1=C([O-])C2CC3(CC2C1=O)OCCCCO3.[Na+] (centres unmarked) [I-f-17] | 100% | 90% | 100% | 80% | 90% | 100% | 100% | 100% | 100% | 60%
C=C1COC2(CC3C(=O)C(c4c(CC)cc(C)cc4CC)=C([O-])C3C2)OC1.[Na+] (centres unmarked) [I-f-20] | 100% | 100% | 100% | 100% | 100% | 100% | 100% | 100% | 100% | 70%
